The source of these data is ChEMBL document CHEMBL1130371, “3-Substituted-4-hydroxy-7-chromanylacetic acid derivatives as antagonists of the leukotriene B4 (LTB4) receptor” (Bioorg Med Chem Lett, 1997).

Assay [1] concerns the target Leukotriene B4 receptor (Cavia porcellus). Nature of the assay: Inhibition of leukotriene B4 (LTB4) binding to guinea pig spleen.
For assay [2], the target named is Leukotriene B4 receptor (Homo sapiens, UniProt Q9NPC1+Q15722). Nature of the assay: Inhibition of LTB4 receptor induced chemotaxis of isolated human neutrophils. The class given is functional.
For assay [3], the species on record is Homo sapiens. Nature of the assay: Antagonistic activity was evaluated against LT D4 on human neutrophils. The format is functional.
For assay [4], the species on record is Homo sapiens. Nature of the assay: Antagonistic activity was evaluated against LT B4 on human neutrophils. The class given is functional.
In assay [5] the test system is Leukotriene B4 receptor (Cavia porcellus). Nature of the assay: Compound was evaluated for the inhibition of Leukotriene B4 (LTB4) receptor binding to guinea pig spleen derived receptor (GPS); IA means inactive.
The species named for assay [6] is Homo sapiens. Nature of the assay: Compound was evaluated for the inhibition of LTB4 receptor -induced chemotaxis of isolated human neutrophils; IA means inactive. The format is functional.

The IC50 is the concentration at which inhibition is half-maximal. A higher IC50 goes with lower potency. For `O=C(O)c1ccc2c(c1)OC[C@H](Cc1ccccc1)[C@H]2O`, the IC50 is 20 µM in assay [1] and over 100 µM in assay [2].
In the case of `CCC(CC)(C(=O)O)c1ccc2c(c1)OC[C@H](Cc1ccccc1)[C@H]2O`, the concentration for half-maximal inhibition (IC50) in assay [1] worked out at 0.29 µM; in assay [2], 0.17 µM.
On to `CC(C)(C(=O)O)c1ccc2c(c1)OC[C@H](Cc1ccc(F)cc1F)[C@H]2O`, for which the values for the IC50 in assay [1] and in assay [2] were 8 µM and 6.2 µM, respectively.
Consider `CC(C)(C(=O)O)c1ccc2c(c1)OC[C@H](Cc1ccccc1)C2`, for which the figures for the IC50 in assay [1] and in assay [2] were 17 µM and 25 µM, respectively.
On to `CC(C(=O)O)c1ccc2c(c1)OC[C@H](Cc1ccccc1)[C@H]2O` (stereo partly drawn), for which the IC50 in assay [3] was over 100 µM; in assay [1], 13 µM; in assay [2] it was 16.4 µM; in assay [4] it was 0.79 µM.
As for `CNC(=O)C(C)(C)c1ccc2c(c1)OC[C@H](Cc1ccccc1)[C@H]2O`, the figures for the IC50 in assay [1] and in assay [2] were over 100 µM and 1.5 µM, respectively.
In the case of `O=C(O)C1(c2ccc3c(c2)OC[C@H](C(c2ccccc2)c2ccccc2)[C@H]3O)CCCC1`, the IC50 in assay [1] worked out at 5.4 µM; in assay [2], 10 µM.
For `CC(C)(C(=O)O)c1ccc2c(c1)OC[C@H](Cc1cccc(F)c1)[C@H]2O`, in that order: 6 µM and 9.4 µM.
As to `O=C(O)C1(c2ccc3c(c2)OC[C@H](Cc2ccc(C(F)(F)F)cc2)[C@H]3O)CCCC1`, the figures for the IC50 in assay [1] and in assay [2] were 12 µM and 6 µM, respectively.
For `OCCc1ccc2c(c1)OC[C@H](Cc1ccccc1)[C@H]2O`, in that order: over 100 µM and over 50 µM.
In the case of `CC(C)c1ccc2c(c1)OC[C@H](Cc1ccccc1)[C@H]2O`, the IC50 came out at 100 µM in assay [1] and 7.2 µM in assay [2].
Take `O=C(O)C1(c2ccc3c(c2)OC[C@H](Sc2ccccc2)[C@H]3O)CCCC1`: the IC50 in assay [1] was 0.56 µM; in assay [2], 0.5 µM.
As to `CC(C(=O)O)c1ccc2c(c1)[C@H](O)[C@@H](Cc1ccccc1)CO2` (stereo partly drawn), the IC50 entry in assay [5] and in assay [6] was “Not Active” each time.
Take `OCc1ccc2c(c1)OC[C@H](Cc1ccccc1)[C@H]2O`: the IC50 is over 100 µM in assay [1] and over 50 µM in assay [2].
As to `COc1cccc(C[C@H]2COc3cc(C(C)C(=O)O)ccc3[C@@H]2O)c1` (stereo partly drawn), the results for the concentration for half-maximal inhibition (IC50) in assay [1] and in assay [2] were 53 µM and 12.2 µM, respectively.
Regarding `CC(C)(C(=O)O)c1ccc2c(c1)OC[C@H](CC1CCCCC1)[C@H]2O`, the values for the IC50 in assay [1] and in assay [2] were 34 µM and 20 µM, respectively.
For `CC(C)(C(=O)O)c1ccc2c(c1)OC[C@H](Cc1ccccn1)[C@H]2O`, in that order: 8 µM and 2.6 µM.
Turning to `O=C(O)CCc1ccc2c(c1)OC[C@H](Cc1ccccc1)[C@H]2O`, the IC50 in assay [1] turned out to be 12 µM; in assay [2] it was 16 µM.
Turning to `CC(C)(C(=O)O)c1ccc2c(c1)OC[C@H](Cc1ccc(Cl)cc1)[C@H]2O`, the IC50 in assay [1] came out at 4 µM; in assay [2], 5.4 µM.
In the case of `O[C@H]1c2ccccc2OC[C@@H]1Cc1ccccc1`, the IC50 in assay [1] is 100 µM; in assay [2], over 50 µM.
Regarding `O=C(O)C1(c2ccc3c(c2)OC[C@H](CCc2ccc(-c4ccccc4)cc2)[C@H]3O)CCCC1`, the IC50 was 3.2 µM in assay [1] and 5.8 µM in assay [2].
For `O[C@H]1c2ccc(C3(C4N=NN=N4)CCCC3)cc2OC[C@@H]1C(c1ccccc1)C1CCCCC1` (stereo partly drawn), in that order: 0.35 µM and 1.5 µM.
Turning to `O=C(O)C1(c2ccc3c(c2)OC[C@H](Cc2ccc(F)cc2F)[C@H]3O)CCCC1`, the IC50 in assay [1] came out at 2 µM; in assay [2] it was 1 µM.
`COc1ccc(C[C@H]2COc3cc(C(C)C(=O)O)ccc3[C@@H]2O)cc1` (stereo partly drawn): the results for the IC50 in assay [1] and in assay [2] were 12 µM and 18.5 µM, respectively.
In the same order, the values of `CC(C)(C(=O)N1CCCC1)c1ccc2c(c1)OC[C@H](Cc1ccccc1)[C@H]2O` are 40 µM and 1.7 µM.
In the same order, the values of `O=C(O)C1(c2ccc3c(c2)OC[C@H](Cc2ccc4ccccc4n2)[C@H]3O)CCCC1` are 8.8 µM and over 50 µM.
In the same order, the values of `O=C(O)C1(c2ccc3c(c2)OC[C@H](CCc2ccccc2)[C@H]3O)CCCC1` are 0.49 µM and 0.3 µM.
With `O=C(O)C1(c2ccc3c(c2)OC[C@H](Cc2cccs2)[C@H]3O)CCCC1`, the IC50 in assay [1] worked out at 0.65 µM; in assay [2], 0.33 µM.
Consider `O=C(O)C1(c2ccc3c(c2)OC[C@H](CCCc2ccccc2)[C@H]3O)CCCC1`, for which the IC50 came to 2.7 µM in assay [1] and 4.2 µM in assay [2].
Take `O=C(O)C1(c2ccc3c(c2)OC[C@H](Cc2ccccc2)[C@H]3O)CCC1`: the values for the IC50 in assay [1] and in assay [2] were 2.7 µM and 14 µM, respectively.
As to `O=C(O)C1(c2ccc3c(c2)OC[C@H](Cc2ccccc2)[C@H]3O)CCCC1` (stereo in doubt), the IC50 in assay [1] was 3.4 µM; in assay [2] it was 1.1 µM.
Turning to `CC(C)(C(=O)O)c1ccc2c(c1)OC[C@H](Cc1ccccc1)[C@H]2O` (stereo in doubt), the IC50 in assay [1] turned out to be 40 µM; in assay [2], 12.5 µM.
Take `O=C(O)Cc1ccc2c(c1)OC[C@H](Cc1ccccc1)[C@H]2O` (stereo in doubt; 4): the IC50 in assay [1] was determined as 25 µM; in assay [2] it was 12 µM.
Turning to `O=C(O)Cc1ccc2c(c1)OC[C@H](Cc1ccccc1)[C@H]2O` (stereo in doubt; 5), the IC50 is 30 µM in assay [1] and 34 µM in assay [2].
`CC(C)(C(=O)O)c1ccc2c(c1)OC[C@H](Cc1ccccc1)[C@H]2O` (stereo in doubt; 6): the IC50 in assay [1] came out at 1.2 µM; in assay [2], 2.4 µM.
On to `CC(C)(C(=O)O)c1ccc2c(c1)OC[C@H](Cc1ccccc1)[C@H]2O` (stereo in doubt; 7), for which the IC50 in assay [1] came out at 2.3 µM; in assay [2], 5.7 µM.
With `CC(C)(C(=O)O)c1ccc2c(c1)OC[C@H](Cc1ccccc1)[C@H]2O` (stereo in doubt; 8), the IC50 came to 1.3 µM in assay [1] and 3.4 µM in assay [2].
For `O=C(O)C1(c2ccc3c(c2)OC[C@H](Cc2ccccc2)[C@H]3O)CCCC1` (stereo in doubt; 11), in that order: 0.32 µM and 0.16 µM.
For the compound `O=C(O)C1(c2ccc3c(c2)OC[C@H](Cc2ccccc2)[C@H]3O)CCCC1` (stereo in doubt; 12), the IC50 is 0.42 µM in assay [1] and 0.078 µM in assay [2].
In the same order, the values of `O=C(O)C1(c2ccc3c(c2)OC[C@H](Cc2ccccc2)[C@H]3O)CCCC1` (stereo in doubt; 13) are 0.29 µM and 0.098 µM.
Regarding `O=C(O)C1(c2ccc3c(c2)OC[C@H](Cc2ccccc2)[C@H]3O)CCCCC1` (stereo in doubt; 14), the IC50 in assay [1] stood at 0.2 µM; in assay [2], 0.38 µM.
In the case of `O=C(O)C1(c2ccc3c(c2)OC[C@H](Cc2ccccc2)[C@H]3O)CCCCC1` (stereo in doubt; 15), the values for the IC50 in assay [1] and in assay [2] were 0.24 µM and 0.23 µM, respectively.
On to `O=C(O)C1(c2ccc3c(c2)OC[C@H](Cc2ccccc2)[C@H]3O)CCCCC1` (stereo in doubt; 16), for which the IC50 came out at 0.25 µM in assay [1] and 0.17 µM in assay [2].
